In one series the test system is Nilgai, deer. Briefly: Observed repellence of vermin mammal species. The series is classed as in vivo. As to conditions: because of its bitterness.
For series [1] the following is noted: in vivo; cited from earlier work.
For another series, the system named is average person. The note with it: cited from earlier work.

In the case of `CC[N+](CC)(CC(=O)Nc1c(C)cccc1C)Cc1ccccc1.O=C([O-])c1ccccc1` [Denatonium benzoate, phenylmethyl-[2-[(2,6-dimethylphenyl)amino]-2-oxoethyl]-diethylammonium benzoate], the “repellence of vermin mammals” value in the series with Nilgai, deer is given as “effectively repelled”. Further, the “human safety in clinical trials” value in series [1] is reported as “extremely human safe”. Further, the “generally recognized bitter taste” value in the series on average person (level of recognised bitter taste) was 50 ppb. Moreover, the “can be detected by the average person” value in the series with average person (taste detection level) is listed as 10 ppb.
